Converted amounts (≈) assume the structure as drawn.
Columns and labels:
Assay type in all cases: cell-based
[1] = tested on: STAPHYLOCOCCUS AUREUS NCTC10649M; assay: In vitro antibacterial activity, MIC, BHI agar dilution; details: S. aureus NCTC10649M, unit assumed
[2] = tested on: STREPTOCOCCUS PYOGENES PIU 2548; assay: as above; details: S. pyogenes PIU 2548, unit assumed
ESCHERICHIA COLI KNK 437 = details: E. coli KNK 437; BHI agar; unit assumed
[3] = tested on: PSEUDOMONAS AERUGINOSA BMH10; assay: In vitro antibacterial activity, MIC, BHI agar dilution; details: P. aeruginosa BMH10, unit assumed
[4] = tested on: MYCOBACTERIUM SMEGMATIS ATCC 114; assay: as above; details: M. smegmatis ATCC 114, unit assumed
[5] = tested on: STAPHYLOCOCCUS EPIDERMIDIS 3519; details: S. epidermidis 3519; BHI agar; unit assumed
[6] = tested on: STAPHYLOCOCCUS AUREUS 1775; assay: In vitro antibacterial activity, MIC, BHI agar dilution; details: S. aureus 1775, unit assumed
ESCHERICHIA COLI H560 = assay: as above; details: E. coli H560, unit assumed
ESCHERICHIA COLI JUHL = details: E. coli JUHL; BHI agar; unit assumed
[7] = tested on: PSEUDOMONAS AERUGINOSA DPHD-5263; assay: In vitro antibacterial activity, MIC, BHI agar dilution; details: P. aeruginosa DPHD-5263, unit assumed
[8] = tested on: ACINETOBACTER CALCOACETICUS CMX 669; assay: as above; details: A. calcoaceticus CMX 669, unit assumed
ESCHERICHIA COLI DC-2 = assay: as above; details: E. coli DC-2, unit assumed
[9] = tested on: PSEUDOMONAS AERUGINOSA 5007; assay: as above; details: P. aeruginosa 5007, unit assumed
[10] = tested on: STREPTOCOCCUS BOVIS A-5169; assay: as above; details: S. bovis A-5169, unit assumed
CANDIDA ALBICANS CCH 442 = assay: as above; details: C. albicans CCH 442, unit assumed
[11] = tested on: STAPHYLOCOCCUS AUREUS ATCC 6538P; assay: as above; details: S. aureus ATCC 6538P, 35-37° C., 20 to 24 hours, unit assumed
[12] = tested on: ENTEROBACTER AEROGENES ATCC 13048; assay: as above; details: E. aerogenes ATCC 13048, unit assumed
[13] = tested on: STREPTOCOCCUS PYOGENES EES61; assay: as above; details: S. pyogenes EES61, unit assumed
[14] = tested on: PROVIDENCIA STUARTII CMX 640; details: P. stuartii CMX 640; BHI agar; unit assumed
[15] = tested on: PSEUDOMONAS AERUGINOSA K799/61; assay: In vitro antibacterial activity, MIC, BHI agar dilution; details: P. aeruginosa K799/61, unit assumed
[16] = tested on: STAPHYLOCOCCUS AUREUS CMX 553; assay: as above; details: S. aureus CMX 553, unit assumed
ESCHERICHIA COLI SS = assay: as above; details: E. coli SS, unit assumed
[17] = tested on: KLEBSIELLA PNEUMONIAE ATCC 8045; assay: as above; details: K. pneumoniae ATCC 8045, unit assumed
[18] = tested on: PSEUDOMONAS AERUGINOSA K799/WT; assay: as above; details: P. aeruginosa K799/WT, unit assumed
[19] = tested on: PSEUDOMONAS AERUGINOSA DPHD-2862; assay: as above; details: P. aeruginosa DPHD-2862, unit assumed
[20] = tested on: STAPHYLOCOCCUS AUREUS A5177; assay: as above; details: S. aureus A5177, unit assumed
[21] = tested on: STAPHYLOCOCCUS AUREUS A-5278; assay: as above; details: S. aureus A-5278, unit assumed
[22] = tested on: STREPTOCOCCUS PYOGENES 930; assay: as above; details: S. pyogenes 930, unit assumed
M[…] ATCC 9341 = assay: as above; details: M. luteus ATCC 9341, unit assumed
Summary of the method: (§1)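 Twelve successive aqueous dilutions of compound in Brain Heart Infusion agar were inoculated with 1:100 culture dilutions (1:10 for slow growers such as Micrococcus, Streptococcus) by Steers replicator and incubated at 35-37° C for 20 to 24 hours. MIC was the lowest concentration giving no growth, slight haze or sparse colonies versus drug-free control.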

M[…] ATCC 4698 = assay: as above; details: M. luteus ATCC 4698, unit assumed
Summary of the method: as §1

EN[…] ATCC 8043 = assay: as above; details: E. faecium ATCC 8043, unit assumed
Summary of the method: as §1

STR[…] 508 = assay: as above; details: S. agalactiae CMX 508, unit assumed
Summary of the method: as §1

PSEUDOMONAS CEPACIA 296I = assay: as above; details: P. cepacia 296I, unit assumed
[23] = tested on: STAPHYLOCOCCUS AUREUS CMX 642A; assay: as above; details: S. aureus CMX 642A, unit assumed

SMILES | MIC [1] | MIC [2] | MIC (ESCHERICHIA COLI KNK 437) | MIC [3] | MIC [4] | MIC [5] | MIC [6] | MIC (ESCHERICHIA COLI H560) | MIC (ESCHERICHIA COLI JUHL) | MIC [7] | MIC [8] | MIC (ESCHERICHIA COLI DC-2) | MIC [9] | MIC [10] | MIC (CANDIDA ALBICANS CCH 442) | MIC [11] | MIC [12] | MIC [13] | MIC [14] | MIC [15] | other results
CC[C@H]1OC(=O)[C@H](C)C(=O)[C@H](C)[C@@H](O[C@@H]2O[C@H](C)C[C@H](N(C)C)[C@H]2O)[C@](C)(OC)C[C@@H](C)C2=N[C@@H]3CCC[C@@H]3N3C(=O)O[C@@]1(C)[C@H]3[C@H]2C [Example 17] | 0.78 µg/mL (≈ 1.15 µM) | 0.39 µg/mL (≈ 0.575 µM) | > 100 µg/mL | > 100 µg/mL | 12.5 µg/mL (≈ 18.4 µM) | 0.78 µg/mL (≈ 1.15 µM) | > 100 µg/mL | 100 µg/mL (≈ 148 µM) | > 100 µg/mL | > 100 µg/mL | 100 µg/mL (≈ 148 µM) | > 100 µg/mL | > 100 µg/mL | 0.02 µg/mL (≈ 0.0295 µM) | > 100 µg/mL | 0.78 µg/mL (≈ 1.15 µM) | > 100 µg/mL | 0.05 µg/mL (≈ 0.0738 µM) | > 100 µg/mL | 12.5 µg/mL (≈ 18.4 µM) | MIC [16]: 0.78 µg/mL (≈ 1.15 µM); MIC (ESCHERICHIA COLI SS): 0.78 µg/mL (≈ 1.15 µM); MIC [17]: > 100 µg/mL; MIC [18]: > 100 µg/mL; MIC [19]: > 100 µg/mL; MIC [20]: 0.78 µg/mL (≈ 1.15 µM); MIC [21]: > 100 µg/mL; MIC [22]: > 100 µg/mL; MIC (M[…] ATCC 9341): 0.1 µg/mL (≈ 0.148 µM); MIC (M[…] ATCC 4698): 0.78 µg/mL (≈ 1.15 µM); MIC (EN[…] ATCC 8043): 0.2 µg/mL (≈ 0.295 µM); MIC (STR[…] 508): 0.05 µg/mL (≈ 0.0738 µM); MIC (PSEUDOMONAS CEPACIA 296I): > 100 µg/mL; MIC [23]: 0.78 µg/mL (≈ 1.15 µM)
CC[C@H]1OC(=O)[C@H](C)C(=O)[C@H](C)[C@@H](O[C@@H]2O[C@H](C)C[C@H](N(C)C)[C@H]2O)[C@](C)(OC)C[C@@H](C)C2=N[C@@H]3CN(Cc4ccc(Cl)cc4)C[C@@H]3N3C(=O)O[C@@]1(C)[C@H]3[C@H]2C [Example 24] | 0.78 µg/mL (≈ 0.971 µM) | 0.78 µg/mL (≈ 0.971 µM) | > 100 µg/mL | > 100 µg/mL | 1.56 µg/mL (≈ 1.94 µM) | 0.78 µg/mL (≈ 0.971 µM) | > 100 µg/mL | > 100 µg/mL | > 100 µg/mL | > 100 µg/mL | > 100 µg/mL | > 100 µg/mL | > 100 µg/mL | 0.05 µg/mL (≈ 0.0622 µM) | > 100 µg/mL | 0.78 µg/mL (≈ 0.971 µM) | > 100 µg/mL | 0.05 µg/mL (≈ 0.0622 µM) | > 100 µg/mL | 6.2 µg/mL (≈ 7.72 µM) | MIC [16]: 0.78 µg/mL (≈ 0.971 µM); MIC (ESCHERICHIA COLI SS): 6.2 µg/mL (≈ 7.72 µM); MIC [17]: > 100 µg/mL; MIC [18]: > 100 µg/mL; MIC [19]: > 100 µg/mL; MIC [20]: 0.78 µg/mL (≈ 0.971 µM); MIC [21]: > 100 µg/mL; MIC [22]: 100 µg/mL (≈ 124 µM); MIC (M[…] ATCC 9341): 0.2 µg/mL (≈ 0.249 µM); MIC (M[…] ATCC 4698): 0.78 µg/mL (≈ 0.971 µM); MIC (EN[…] ATCC 8043): 0.2 µg/mL (≈ 0.249 µM); MIC (STR[…] 508): 0.2 µg/mL (≈ 0.249 µM); MIC (PSEUDOMONAS CEPACIA 296I): > 100 µg/mL; MIC [23]: 0.78 µg/mL (≈ 0.971 µM)
CC[C@H]1OC(=O)[C@H](C)C(=O)[C@H](C)[C@@H](O[C@@H]2O[C@H](C)C[C@H](N(C)C)[C@H]2O)[C@](C)(OC)C[C@@H](C)C2=N[C@@H]3CN(Cc4ccncc4)C[C@@H]3N3C(=O)O[C@@]1(C)[C@H]3[C@H]2C [Example 25] | 0.39 µg/mL (≈ 0.507 µM) | 0.78 µg/mL (≈ 1.01 µM) | > 100 µg/mL | > 100 µg/mL | 3.1 µg/mL (≈ 4.03 µM) | 0.78 µg/mL (≈ 1.01 µM) | > 100 µg/mL | 100 µg/mL (≈ 130 µM) | > 100 µg/mL | > 100 µg/mL | 100 µg/mL (≈ 130 µM) | > 100 µg/mL | > 100 µg/mL | 0.1 µg/mL (≈ 0.13 µM) | > 100 µg/mL | 0.78 µg/mL (≈ 1.01 µM) | > 100 µg/mL | 0.05 µg/mL (≈ 0.0649 µM) | > 100 µg/mL | 0.78 µg/mL (≈ 1.01 µM) | MIC [16]: 0.78 µg/mL (≈ 1.01 µM); MIC (ESCHERICHIA COLI SS): 0.78 µg/mL (≈ 1.01 µM); MIC [17]: > 100 µg/mL; MIC [18]: 100 µg/mL (≈ 130 µM); MIC [19]: > 100 µg/mL; MIC [20]: 0.78 µg/mL (≈ 1.01 µM); MIC [21]: > 100 µg/mL; MIC [22]: > 100 µg/mL; MIC (M[…] ATCC 9341): 0.1 µg/mL (≈ 0.13 µM); MIC (M[…] ATCC 4698): 0.39 µg/mL (≈ 0.507 µM); MIC (EN[…] ATCC 8043): 0.1 µg/mL (≈ 0.13 µM); MIC (STR[…] 508): 0.1 µg/mL (≈ 0.13 µM); MIC (PSEUDOMONAS CEPACIA 296I): > 100 µg/mL; MIC [23]: 0.78 µg/mL (≈ 1.01 µM)
CC[C@H]1OC(=O)[C@H](C)C(=O)[C@H](C)[C@@H](O[C@@H]2O[C@H](C)C[C@H](N(C)C)[C@H]2O)[C@](C)(OC)C[C@@H](C)C2=NC[C@@H](COCc3ccccc3)N3C(=O)O[C@@]1(C)[C@H]3[C@H]2C [Example 37] | 0.1 µg/mL (≈ 0.132 µM) | 0.39 µg/mL (≈ 0.515 µM) | 25 µg/mL (≈ 33 µM) | 50 µg/mL (≈ 66 µM) | 0.39 µg/mL (≈ 0.515 µM) | 0.1 µg/mL (≈ 0.132 µM) | > 100 µg/mL | 25 µg/mL (≈ 33 µM) | 50 µg/mL (≈ 66 µM) | > 100 µg/mL | 25 µg/mL (≈ 33 µM) | 25 µg/mL (≈ 33 µM) | > 100 µg/mL | ≤ 0.005 µg/mL | > 100 µg/mL | 0.1 µg/mL (≈ 0.132 µM) | 50 µg/mL (≈ 66 µM) | ≤ 0.005 µg/mL | > 100 µg/mL | 0.78 µg/mL (≈ 1.03 µM) | MIC [16]: 0.1 µg/mL (≈ 0.132 µM); MIC (ESCHERICHIA COLI SS): 0.39 µg/mL (≈ 0.515 µM); MIC [17]: 50 µg/mL (≈ 66 µM); MIC [18]: > 100 µg/mL; MIC [19]: > 100 µg/mL; MIC [20]: 0.1 µg/mL (≈ 0.132 µM); MIC [21]: > 100 µg/mL; MIC [22]: 100 µg/mL (≈ 132 µM); MIC (M[…] ATCC 9341): 0.01 µg/mL (≈ 0.0132 µM); MIC (M[…] ATCC 4698): 0.2 µg/mL (≈ 0.264 µM); MIC (EN[…] ATCC 8043): 0.05 µg/mL (≈ 0.066 µM); MIC (STR[…] 508): 0.02 µg/mL (≈ 0.0264 µM); MIC (PSEUDOMONAS CEPACIA 296I): 100 µg/mL (≈ 132 µM); MIC [23]: 0.1 µg/mL (≈ 0.132 µM)

From patent US6274715A, “Tricyclic erythromycin derivatives” (priority 1997, dated 2001)
